Measured values from the NIST ThermoML archive (doi:10.1021/acs.jced.5b00776).

Conditions: Wilhelmi plate

O [water]
Conditions | surface tension liquid-gas [mN/m]
272.64 K, Metastable liquid | 75.78
273.04 K, Metastable liquid | 75.71
275.06 K, Liquid | 75.41
276.72 K, Liquid | 75.17
280.09 K, Liquid | 74.69
280.34 K, Liquid | 74.65
283.27 K, Liquid | 74.23
286.54 K, Liquid | 73.74
288.33 K, Liquid | 73.46
290.57 K, Liquid | 73.12
293.04 K, Liquid | 72.74
294.13 K, Liquid | 72.58
295.71 K, Liquid | 72.33
297.4 K, Liquid | 72.07
298.42 K, Liquid | 71.91
299.35 K, Liquid | 71.77
300.3 K, Liquid | 71.62
301.78 K, Liquid | 71.39
302.43 K, Liquid | 71.28
303.41 K, Liquid | 71.13
304.45 K, Liquid | 70.96
305.69 K, Liquid | 70.76
306.63 K, Liquid | 70.61
307.99 K, Liquid | 70.39
310.6 K, Liquid | 69.97
313.69 K, Liquid | 69.47
316.02 K, Liquid | 69.07
318.49 K, Liquid | 68.66
323.62 K, Liquid | 67.79
328.1 K, Liquid | 67.03
333.49 K, Liquid | 66.1
337.83 K, Liquid | 65.34
343.49 K, Liquid | 64.33
